Test results from patent publication US20010008891A1, “PHARMACEUTICAL COMPOSITIONS COMPRISING A XANTHINE AND A CATECHIN” (priority 1998, published 2001).

System: human platelet rich plasma
Assay: ADP induced platelet aggregation test in human platelet rich plasma
Format: cell-based
Description: The antiplatelet aggregatory activity was measured using human platelet rich plasma as described below, and in Subbiah et al. Brazilian Journal of Medical and Biological Research 1988; 21: 535-538.
Platelet-rich plasma (PRP) was obtained by centrifuging blood collected in 3.8% trisodium citrate (9:1, v/v) from human volunteers or from the blood bank for 15 minutes at 700 rpm. Remaining blood was centrifuged at 2500 rpm for 25 minutes to obtain platelet-poor plasma (PPP). The platelets were quantified with an electronic counter (Coulter Electronics, Inc., Hialeah, Fla.). The platelet count was adjusted to 300,000-350,000/mm^3 with PPP, and 0.45 ml used in each test of aggregation.
ADP (Sigma Chemical Co. St. Louis, Mo.) (0.1 mg/ml), and arachidonic acid (NuCheck Pre, Elysian, Minn.) (1.0 mg/ml in 20 mM Na2CO3) were used as aggregatory agents. Samples were warmed to 37° C. with stirring for approximately two minutes prior to the addition of 50 μl of aggregating agents. Guarana (or its fractions) or caffeine (alone or in combination with catechins) were added before the addition of ADP or arachidonic acid. The change in percentage light transmission was recorded with a dual aggregometer (Chrono-Log Co, Havertown, Pa.) after addition of aggregation agents.

SMILES: Cn1c(=O)c2c(ncn2C)n(C)c1=O [caffeine]
- platelet aggregation inhibitory activity (in words): only weakly active
